Structures can show the parent of a compound that is named as a salt. Where two headings read alike, the source gives them in different places.

This test concerns murine neural precursor cells (neurosphere cultures). Kind of test: HTS of LOPAC library against secondary neurosphere cultures, MTT proliferation assay at 3 μM, day 7 (z score, P value). The test is classed as cell-based, mouse.
The mark [1] stands for this setting: yes/no: significantly inhibited neurosphere proliferation (P<0.01) in primary screen.
The mark [2] stands for this setting: LOPAC primary screen, neurosphere MTT proliferation, 3 μM, day 7.
Setting [3] is: yes = significantly inhibited neurosphere proliferation (P<0.01) in the primary screen.
[4] abbreviates: LOPAC library screen, 3 μM, MTT, secondary neurosphere cultures, day 7.
Setting [5] is: yes/no: significantly inhibited neurosphere proliferation in primary screen.
The mark [6] stands for this setting: LOPAC library screen at 3 μM, secondary neurosphere cultures, MTT.
Setting [7] is: yes/no: significantly inhibited neurosphere proliferation (P<0.01) in the primary screen.
[8] abbreviates: primary LOPAC screen, 3 μM, MTT, neurosphere proliferation.
The mark [9] stands for this setting: yes/no: significantly inhibited neurosphere proliferation in the primary screen.
Where [10] appears, read: LOPAC screen, neurosphere MTT proliferation, 3 μM, day 7.
[11] abbreviates: LOPAC library screen, 3 μM, MTT, neurosphere cultures.

`NCCCCCCCCCCN` [1,10-Diaminodecane]: for the setting “168 h, 3 µM”, the “Z Score” value was 0.1393 and the Z score is listed as 0.139. Besides, the Activity result under setting [1] is “no”.

Consider `CCn1cc(C(=O)O)c(=O)c2ccc(C)nc21` [Nalidixic acid sodium], for which the “Z Score” value was −0.3145. The Z score under setting [2] is −0.314. Further, the Activity entry under setting [3] is “no”.

As for `NS(=O)(=O)c1cccc2c1c([N+](=O)[O-])cc1nc([O-])c([O-])nc12.[Na+].[Na+]` [NBQX disodium], under setting [4], the “Z Score” value is −1.675. The same compound returned a Z score under setting [2] of −1.675. Besides, the Activity entry under setting [5] is “no”.

As to `COC(=O)Nc1nc2ccc(C(=O)c3cccs3)cc2[nH]1` [Nocodazole], under setting [6], the “Z Score” value was −0.1891. For the same compound, the Z score under setting [2] was −0.189. Further, under setting [3], the Activity result was “no”.

On to `COc1ccc2c(c1)c(CC(=O)O)c(C)n2Cc1ccc(F)cc1` [1-(4-Fluorobenzyl)-5-methoxy-2-methylindole-3-acetic acid], for which, under “168 h, 3 µM”, the “Z Score” value is −0.5376 and the Z score is reported as −0.538. For the same compound, under setting [1], the Activity entry was “no”.

On to `COc1c2c(nc3ccccc13)OC(C(C)(O)CO)C2` (stereo not shown) [Dubinidine], for which the “Z Score” value is reported as −2.437. This compound also registered a Z score under setting [2] of −2.437. Also, the Activity result under setting [7] is listed as “yes”.

`CCCCCCCCCCCCC/C=C/[C@@H](O)[C@@H](N)CO` [Sphingosine]: the “Z Score” value is 1.404. The Z score under setting [2] was 1.404. For the same compound, the Activity result under setting [5] is given as “no”.

As for `CC1=C[C@@H]2c3cccc4[nH]cc(c34)C[C@H]2N(C)C1` [Agroclavine], the “Z Score” value is given as −0.9109. Besides, the Z score under setting [8] is recorded as −0.911. Moreover, the Activity result under setting [9] is “no”.

Consider `O=C(O)c1cccnc1C(=O)O` [Quinolinic acid], for which, under “168 h, 3 µM”, the “Z Score” value was −2.419 and the Z score is recorded as −2.419. Moreover, under setting [3], the Activity entry is “yes”.

In the case of `CCC(C)N(C)C(=O)c1cc2ccccc2c(-c2ccccc2Cl)n1` (stereo not shown) [PK 11195], for the setting “168 h, 3 µM”, the “Z Score” value is recorded as −0.4676 and the Z score was −0.468. Moreover, the Activity entry under setting [1] was “no”.

Consider `COc1ccc2[nH]c(I)c(CCNC(C)=O)c2c1` [2-Iodomelatonin], for which the “Z Score” value was −0.1348. The Z score under setting [2] is given as −0.135. The Activity result under setting [1] is listed as “no”.

For `CN1CCN(CC/C=C2/c3ccccc3Sc3ccc(S(=O)(=O)N(C)C)cc32)CC1` [Thiothixene hydrochloride], the Activity entry was “no”. Further, for the setting “168 h, 3 µM”, the “Z Score” value is −1.899 and the Z score is given as −1.899.

`Cl.Cl.c1ccc(CCCN2CCN(CCOC(c3ccccc3)c3ccccc3)CC2)cc1` [GBR-12935 dihydrochloride]: the “Z Score” value is −11.27. This compound returned a Z score under setting [2] of −11.274. Further, under setting [7], the Activity result is “yes”.

Regarding `CC(=O)[C@@]1(O)CC[C@H]2[C@@H]3CCC4=CC(=O)CC[C@]4(C)[C@H]3CC[C@@]21C` [17alpha-hydroxyprogesterone], the “Z Score” value is listed as −0.5783. Under setting [2], this compound displayed a Z score of −0.578. Besides, under setting [1], the Activity entry is reported as “no”.

`O=c1[nH]c(=O)n([C@H]2C[C@H](O)[C@@H](CO)O2)cc1Br` [5-Bromo-2′-deoxyuridine]: under setting [10], the Z score came out at 2.580. For the same compound, the Activity entry under setting [1] was “no”.

In the case of (−)-Bicuculline methbromide, 1(S), 9(R), the Activity result is “no” and the “Z Score” value is given as −1.842. The same compound showed a Z score under setting [2] of −1.842.

As for `COC(=O)C(C)(N)Cc1ccc(O)cc1.Cl` (racemic) [alpha-Methyl-DL-tyrosine methyl ester hydrochloride], for the setting “168 h, 3 µM”, the “Z Score” value was determined as 0.3703 and the Z score was found to be 0.370. Under setting [7], the Activity entry is “no”.

In the case of `CCN1C(=O)C=CC1=O` [N-Ethylmaleimide], the “Z Score” value is listed as −0.02816. The compound further had a Z score under setting [2] of −0.028. Moreover, the Activity result under setting [1] was “no”.

On to `CN/C(=N\c1ccc(C2=NNC(=O)CC2C)cc1)NC#N` (stereo not shown) [SKF 94836], for which the “Z Score” value is reported as 0.2458. For the same compound, the Z score under setting [2] came out at 0.246. For the same compound, the Activity entry under setting [5] is given as “no”.

Take `N[C@H]1CONC1=O` [L-Cycloserine]: the “Z Score” value under setting [6] is on record as −0.1552. Under setting [8], this compound gave a Z score of −0.155. Besides, the Activity result under setting [9] is on record as “no”.

Take `CCn1cnc2c(Nc3cccc(Cl)c3)nc(N[C@@H]3CCCC[C@@H]3N)nc21.Cl` [CGP-74514A hydrochloride]: the “Z Score” value is given as −9.117. The compound further gave a Z score under setting [2] of −9.117. Also, under setting [7], the Activity entry was “yes”.

`CC[C@]1(O)C[C@H]2CN(CCc3c([nH]c4ccccc34)[C@@](C(=O)OC)(c3cc4c(cc3OC)N(C=O)[C@H]3[C@@](O)(C(=O)OC)[C@H](OC(C)=O)[C@]5(CC)C=CCN6CC[C@]43[C@@H]65)C2)C1` [Vincristine sulfate]: the “Z Score” value under setting [4] is on record as −10.79. Besides, under setting [2], the Z score was −10.792. Besides, the Activity result under setting [7] was “yes”.

In the case of `Cc1ncc(CNC(=O)N(CCCl)N=O)c(N)n1` [Nimustine hydrochloride], the “Z Score” value is recorded as −0.6524.

As to `C[C@H](N)CN1CCc2ccc(Br)cc21.C[C@H](N)CN1CCc2ccc(Br)cc21.O=C(O)/C=C/C(=O)O` [VER-3323 hemifumarate salt], the “Z Score” value is on record as −0.7614. The compound also had a Z score under setting [2] of −0.761. For the same compound, under setting [1], the Activity entry is “no”.

As for `N=C(N)NC(CCC(=O)O)C(=O)O` (stereo not drawn) [alpha-Guanidinoglutaric acid], under “168 h, 3 µM”, the “Z Score” value was −9.041 and the Z score was −9.041. Moreover, under setting [7], the Activity entry was “yes”.

`NC(CP(=O)(O)O)C(=O)O` (racemic) [(±)-2-Amino-3-phosphonopropionic acid] registered a Z score under setting [8] of 1.250. For the same compound, the Activity result under setting [9] is “no”.

As to `CCN(CC)c1ncnc2c1ncn2[C@@H]1O[C@H](COP(=O)([O-])OP(=O)([O-])C(Br)(Br)P(=O)([O-])O)[C@@H](O)[C@H]1O.[Na+].[Na+].[Na+]` [ARL 67156 trisodium salt], the “Z Score” value is −0.168. This compound also returned a Z score under setting [8] of −0.168. Moreover, the Activity entry under setting [9] is reported as “no”.

`O=c1[nH]c2cc(C(F)(F)F)ccc2n1-c1cc(C(F)(F)F)ccc1O` [NS-1619]: the “Z Score” value is −0.4878. Moreover, the Z score under setting [2] is given as −0.488. For the same compound, under setting [5], the Activity result is listed as “no”.

For the compound `CN1C2CCC1CC(NC(=O)c1nn(C)c3ccccc13)C2.O=C(O)/C=C\C(=O)O` (stereo not shown) [LY-278,584 maleate], the “Z Score” value is reported as −1.074. Under setting [2], this compound came in with a Z score of −1.074. Also, under setting [3], the Activity entry is “no”.

As to `CC(=O)Oc1ccccc1C(=O)O` [Acetylsalicyclic acid], the Z score under setting [8] is reported as −0.481. Also, the Activity entry under setting [9] is “no”.

Take `COc1nc(C)nc(Cl)c1N=C1NCCN1` [Moxonidine hydrochloride]: the “Z Score” value under setting [11] was 0.2171. Moreover, the Z score under setting [2] came out at 0.217. The Activity entry under setting [3] is given as “no”.

Consider `C[C@H]1C[C@H]2[C@@H]3CCC4=CC(=O)C=C[C@]4(C)[C@@]3(F)[C@@H](O)C[C@]2(C)[C@@]1(O)C(=O)CO` [Betamethasone], for which the “Z Score” value under setting [11] is 0.8811. The Z score under setting [10] is 0.881.

Regarding SKF 83565 hydrobromide, under setting [5], the Activity result is given as “no”.

On to `N.N.N.N.N.N.N.N.N.N.N.N.N.N.[Cl-].[Cl-].[Cl-].[Cl-].[Cl-].[Cl-].[O-2].[O-2].[Ru+3].[Ru+3].[Ru+4]` [Ruthenium red], for which the “Z Score” value is listed as −0.07388. Under setting [2], the Z score is given as −0.074. The Activity entry under setting [5] is reported as “no”.

Take `N[C@@H]1CONC1=O` (racemic) [DL-Cycloserine]: the “Z Score” value under setting [6] is −0.2986. This compound also showed a Z score under setting [10] of −0.299. Under setting [1], the Activity entry was “no”.

`COc1ccc(CCN(C)CCCC(C#N)(c2cc(OC)c(OC)c(OC)c2)C(C)C)cc1OC.Cl` (stereo not shown) [(B1)-Methoxyverapamil hydrochloride]: the “Z Score” value was −1.407.

Turning to `Br.Br.N=C(N)SCCc1cccc(CCSC(=N)N)c1` [1,3-PBIT dihydrobromide], the “Z Score” value came to 2.221. Moreover, under setting [2], the Z score was determined as 2.221. In addition, the Activity result under setting [5] was “no”.

Turning to `NC(=O)c1cc(N2CC2)c([N+](=O)[O-])cc1[N+](=O)[O-]` [CB 1954], the “Z Score” value under setting [6] is −1.07. Besides, the Z score under setting [8] is given as −1.070. Moreover, the Activity entry under setting [9] is reported as “no”.

`O=c1[nH]c2ccccc2c2ccccc12` [6(5H)-Phenanthridinone]: where the note is “168 h, 3 µM”, the “Z Score” value worked out at 0.6765 and the Z score is listed as 0.677. Further, the Activity entry under setting [5] is “no”.

Take `CCCN(CCC)CCc1cccc2c1CC(=O)N2` [Ropinirole hydrochloride]: the Activity entry is “no”. For the same compound, for the setting “168 h, 3 µM”, the “Z Score” value is −0.2552 and the Z score is −0.255.

Regarding `O=C(O)C1CCNCC1` [Isonipecotic acid], where the note is “168 h, 3 µM”, the “Z Score” value is reported as −0.4569 and the Z score was −0.457. For the same compound, the Activity entry under setting [1] is “no”.

In the case of `O=C(O)c1cc2cc(Cc3cccnc3)ccc2o1` [Furegrelate sodium], the “Z Score” value under setting [11] was 0.3638. In addition, under setting [2], the Z score worked out at 0.364. Further, under setting [1], the Activity entry is on record as “no”.

With `NC(N)=NCCCCN=C(N)N` [Arcaine sulfate], under setting [6], the “Z Score” value is reported as −0.3299. This compound also registered a Z score under setting [2] of −0.330. In addition, under setting [5], the Activity entry was “no”.

On to `O=c1cc(O)cc(/C=C/c2ccc(O)c(O)c2)o1` [Hispidin], for which, under “168 h, 3 µM”, the “Z Score” value stood at 0.8896 and the Z score is on record as 0.890. Besides, the Activity result under setting [1] is recorded as “no”.

As to `CCCN(CCC)CCc1ccc(O)c(O)c1` [Dipropyldopamine hydrobromide], the “Z Score” value is given as −1.346. Further, the Z score under setting [10] is −1.346.

Values taken from patent publication US8058243B2, “Method for treating a brain cancer with ifenprodil” (HSC Research and Development Limited Partnership, priority 2006, dated 2011).
